For 1 compound, Ames test results are on record in patent publication US4797427A, “Aromatic diamines containing sulfonic acid aryl esters, a process for their production and their use in the production of polyurethane plastics” (Bayer Aktiengesellschaft, priority 1987, dated 1989).

The data set is described as follows: Ames test. The class given is cell-based.

As to `Cc1c(N)cc(S(=O)(=O)Oc2ccccc2)cc1N` [2,6-diaminotoluene-4-sulfonic acid phenyl ester], the Ames test entry was “Ames-negative”.
